Patent US20210349097A1, “BIOMARKERS FOR A COMBINATION THERAPY COMPRISING LENVATINIB AND EVEROLIMUS” (Eisai R&D Management Co., Ltd., priority 2018, published 2021)

Columns and labels:
Format in all cases: in vivo, human
[1] = test system: metastatic renal cell carcinoma (RCC); assay: Phase 2 study in metastatic RCC after prior VEGF-targeted therapy: overall survival (OS) by baseline serum biomarker / composite biomarker score
Procedure: (§1) A Phase 2 study for lenvatinib was performed in patients with metastatic renal cell carcinoma (RCC) following a VEGF-targeted therapy. Patients having metastatic renal cell carcinoma after a prior VEGF-targeted therapy received lenvatinib mesylate (“lenvatinib”), everolimus, or the combination thereof until disease progression or development of unmanageable toxicities. A total of 153 subjects were randomized into 3 treatment arms to receive:
(§2) 1) 18 mg/day lenvatinib (as lenvatinib free base; the same shall apply hereinafter)+5 mg/day everolimus (Arm A [LEN/EVE treatment arm], N=51),
(§3) 2) lenvatinib 24 mg/day (Arm B [LEN treatment arm], N=52), or
(§4) 3) everolimus 10 mg/day (Arm C [EVE treatment arm], N=50).
(§5) Each Cycle consisted of 4 weeks (28 days)
(§6) Blood samples for biomarker assessments were collected from subjects in all 3 treatment arms (LEN/EVE, N=49; LEN, N=51; EVE, N=47; Total, N=147) at Cycle 1 Day 1(pre-treatment). In samples from 145 subjects (94.8% of all Intention to Treat [ITT] population; LEN/EVE, N=49; LEN, N=50; EVE, N=46), 40 candidate biomarkers shown in Table 1 were assayed using 19 preconfigured CustomMAP immunoassay panels and measured by a multiplex flow cytometry-based platform by the manufacturer (Multi-Analyte Profile (MAP)) at a Myriad RBM (Austin, Tex., USA).
(§7) For baseline levels of each serum biomarker, correlation analyses with OS were performed using univariate Cox regression in each of the 3 arms. Hazard ratio (HR) for biomarkers with continuous values was calculated as a ratio of hazards between measured values with one standard deviation (HR per standard deviation). Baseline serum FGF-21, ICAM-1, and M-CSF levels were associated with OS in the LEN/EVE arm (Table 4).
For FGF-21, ICAM-1, and M-CSF, dichotomized analyses were performed to correlate baseline serum biomarker levels in subjects with low and high levels with OS in the 3 arms using univariate Cox regression and the log-rank test at median cutoff point. Low baseline levels of FGF-21, ICAM-1, and M-CSF were associated with longer OS in the LEN/EVE arm (Table 5).
(§8) For each biomarker integrated into the CBS, a value of 1 was assigned if the respective baseline biomarker level fell within the range previously determined to associate with longer survival on single biomarker cutoff analysis; a value of 0 was assigned if the respective baseline biomarker level was categorized in the range associated with shorter survival. The sum of the individual values (0 vs. 1 for each of the 5 biomarkers) was computed as a CBS for each subject (range 0-5; high=favorable survival). Patients were then dichotomized per CBS as low and high groups (0 vs. 1-5, 0-1 vs. 2-5, 0-2 vs. 3-5, 0-3 vs. 4-5, and 0-4 vs. 5). Associations between the groups and OS were explored using univariate Cox regression and the log-rank test with each of the selected dichotomization points in each treatment arm. Interaction P values were estimated by multivariate Cox regression analysis with treatment arm, baseline level and OS. Associations between the groups and objective response rate (ORR) were also explored using Fisher's exact test.
For each biomarker integrated into the CBS, a value of 1 was assigned if the respective baseline biomarker level fell within the range determined to associate with longer survival in the single biomarker cutoff analysis; a value of 0 was assigned if the respective baseline biomarker level was categorized in the range associated with shorter survival. The sum of the individual values (0 vs. 1 for each of the 2 biomarkers) was computed as a CBS for each subject (range 0-2). Patients were then dichotomized per CBS as low and high groups (0 vs. 1-2 and 0-1 vs. 2). Associations between the groups and OS were explored using univariate Cox regression and the log-rank test with each of the selected dichotomization points in each treatment arm. […]

[2] = test system: metastatic renal cell carcinoma (RCC); assay: Phase 2 study in metastatic RCC after prior VEGF-targeted therapy: objective response rate (ORR) by composite biomarker score
Procedure: as §1, §2, §3, §4, §5, §6
as §8, with “range” for “range previously”, “survival in the” for “survival on”, “(range 0-5).” for “(range 0-5; high=favorable survival).”, “and PFS” for “and OS”, “and PFS.” for “and OS.”
as §8
(§9) For each biomarker integrated into the CBS, a value of 1 was assigned if the respective baseline biomarker level fell within the range determined to associate with longer survival in the single biomarker cutoff analysis; a value of 0 was assigned if the respective baseline biomarker level was categorized in the range associated with shorter survival. The sum of the individual values (0 vs. 1 for each of the 2 biomarkers) was computed as a CBS for each subject (range 0-2). […]

[3] = test system: metastatic renal cell carcinoma (RCC); assay: Phase 2 study in metastatic RCC after prior VEGF-targeted therapy: progression free survival (PFS) by baseline serum biomarker / composite biomarker score
Procedure: as §1, §2, §3, §4, §5, §6
as §7, with “PFS” for “OS”, “IL-18BP” for “FGF-21, ICAM-1, and M-CSF”, “2). In the following tables, FDR refers to False Discovery Rate, MST refers to Median Survival Time and CI refers to Confidence Interval.” for “4).”
For IL-18BP, dichotomized analysis was performed to correlate baseline serum biomarker levels in subjects with low and high levels with PFS in the 3 arms. The cutoff points were median, first tertile, second tertile, first quartile or third quartile. Association between the groups and PFS was explored using univariate Cox regression and the log-rank test with each of the selected cutoff points. At the second tertile cutoff point, median PFS for the high IL-18BP group (5.6 months) was shorter than that for the low group (17.5 months) in the LEN/EVE arm (Table 3).
as §8, with “range” for “range previously”, “survival in the” for “survival on”, “(range 0-5).” for “(range 0-5; high=favorable survival).”, “and PFS” for “and OS”, “and PFS.” for “and OS.”
as §9

[4] = 5-marker CBS (TIMP-1, M-CSF, IL-18BP, ANG-2, VEGF-A)
[5] = 5-marker CBS (HGF, MIG, IL-18BP, IL-18, ANG-2)

SMILES: CO[C@H]1C[C@@H]2CC[C@@H](C)[C@@](O)(O2)C(=O)C(=O)N2CCCC[C@H]2C(=O)O[C@H]([C@H](C)C[C@@H]2CC[C@@H](OCCO)[C@H](OC)C2)CC(=O)[C@H](C)/C=C(\C)[C@@H](O)[C@@H](OC)C(=O)[C@H](C)C[C@H](C)/C=C/C=C/C=C/1C [EVE, (1R,9S,12S,15R,16E,18R,19R,21R,23S,24E,26E,28E,30S,32S,35R)-1,18-dihydroxy-12-{(1R)-2-[(1S,3R,4R)-4-(2-hydroxyethoxy)-3-methoxycyclohexyl]-1-methylethyl}-19,30-dimethoxy-15,17,21,23,29,35-hexamethyl-11,36-dioxa-4-aza-tricyclo[30.3.1.0^4,9]hexatriaconta-16,24,26,28-tetraene-2,3,10,14,20-pentaone]
- HR OS, high CBS (1-2) vs low CBS (0) within arm ([1]; 2-marker CBS (IL-18BP, ANG-2)): 0.461
- mOS, CBS High (1-2) ([1]; 2-marker CBS (IL-18BP, ANG-2)): 17.5 mo
- mOS, CBS Low (0) ([1]; 2-marker CBS (IL-18BP, ANG-2)): 11.4 mo
- mOS, high CBS score (1-2) ([1]; 2-marker CBS (IL-18BP, ANG-2)): 17.5 months
- mOS, low CBS score (0) ([1]; 2-marker CBS (IL-18BP, ANG-2)): 11.4 months
- mOS, CBS High (3-5) [1, 4]: 17.4 mo
- mOS, CBS Low (0-2) [1, 4]: 15.0 mo
- mOS, high CBS score (3-5) [1, 4]: 17.4 months
- MST (median OS), FGF-21 High ([1]; baseline FGF-21 high, cutoff quantile 0.5 (median)): 19.5
- MST (median OS), FGF-21 Low ([1]; baseline FGF-21 low, cutoff quantile 0.5 (median)): 15.3
- MST (median OS), ICAM-1 High ([1]; baseline ICAM-1 high, cutoff quantile 0.5 (median)): 18.5
- MST (median OS), ICAM-1 Low ([1]; baseline ICAM-1 low, cutoff quantile 0.5 (median)): 13.3
- MST (median OS), M-CSF High ([1]; baseline M-CSF high, cutoff quantile 0.5 (median)): 15.4
- MST (median OS), M-CSF Low ([1]; baseline M-CSF low, cutoff quantile 0.5 (median)): 17.2
- HR (95% CI) OS, FGF-21 low and high groups ([1]; cutoff quantile 0.5 (median)): 0.741
- HR (95% CI) OS, ICAM-1 low and high groups ([1]; cutoff quantile 0.5 (median)): 0.66
- HR (95% CI) OS, M-CSF low and high groups ([1]; cutoff quantile 0.5 (median)): 1.146
- HR (95% CI), baseline FGF-21 with OS ([1]; univariate Cox regression, HR per standard deviation of baseline serum FGF-21): 0.996
- HR (95% CI), baseline ICAM-1 with OS ([1]; univariate Cox regression, HR per standard deviation of baseline serum ICAM-1): 1.017
- HR (95% CI), baseline M-CSF with OS ([1]; univariate Cox regression, HR per standard deviation of baseline serum M-CSF): 1.366
- ORR, CBS High (1-2) ([2]; 2-marker CBS (IL-18BP, ANG-2)): 6.9%
- ORR, CBS Low (0) ([2]; 2-marker CBS (IL-18BP, ANG-2)): 0.0%
- ORR, CBS High (3-5) [2, 5]: 5.0%
- ORR, CBS Low (0-2) [2, 5]: 4.2%
- ORR, CBS High (3-5) [2, 4]: 5.3%
- ORR, CBS Low (0-2) [2, 4]: 4.0%
- mPFS, CBS High (1-2) ([3]; 2-marker CBS (IL-18BP, ANG-2)): 5.5 mo
- mPFS, CBS Low (0) ([3]; 2-marker CBS (IL-18BP, ANG-2)): 3.0 mo
- mPFS, high CBS score (1-2) ([3]; 2-marker CBS (IL-18BP, ANG-2)): 5.5 months
- mPFS, CBS High (3-5) [3, 5]: 3.6 mo
- mPFS, CBS Low (0-2) [3, 5]: 5.5 mo
- mPFS, high CBS score (3-5) [3, 5]: 3.6 months
- MST (median PFS), IL-18BP High Group ([3]; baseline serum IL-18BP high, cutoff quantile 0.67 (second tertile)): 3.5 months
- MST (median PFS), IL-18BP Low Group ([3]; baseline serum IL-18BP low, cutoff quantile 0.67 (second tertile)): 5.5 months
- HR (95% CI) PFS, IL-18BP low and high groups ([3]; cutoff quantile 0.67 (second tertile), univariate Cox regression): 1.194
- HR (95% CI), baseline IL-18BP with PFS ([3]; univariate Cox regression, HR per standard deviation of baseline serum IL-18BP): 1.207
